Structures can show the parent of a compound that is named as a salt.
Key:
[1] = system: A23187-Induced LTB4 Production in Human Promyelocytic Leukemia HL-60 Cells; test: A23187-Induced LTB4 Production in Human Promyelocytic Leukemia HL-60 Cells (HL-60 Cell Assay); format: cell-based; set-up: key to HL-60 Cell Assay % Inhibition: I: inactive at that concentration; conditions: for IC50: A23187-stimulated HL-60 cells, LTB4
From the text: A23187-Induced LTB4 Production in Human Promyelocytic Leukemia HL-60 Cells.
Materials: Calcium ionophore A23187 was obtained from Calbiochem (La Jolla, Calif.). Trans-stilbene oxide was obtained from Sigma (St. Louis, Mis.). Hanks' balanced salt solution (HBSS) (10× concentrate), 1M Hepes, and Dulbecco's modified Eagle medium were obtained from GIBCO Laboratories (Grand Island, N.Y.). Fetal bovine serum was obtained from HyClone Laboratories (Logan, Utah). The LTB4 and PGE2 radioimmunoassay antibodies were purchased from Amersham International plc (Amersham, UK) and NEN Research Products (N. Billerica, Mass.), respectively. Reagents for assay of lactate dehydrogenase (LDH) activity were purchased from Beckman (Carlsbad, Calif.).
Preparation of HL-60 Cells: HL-60 cells were cultured in Dulbecco's modified Eagle medium (supplemented with 20% fetal bovine serum, 20 mM Hepes, 100 U/ml penicillin and 100 mcg/ml streptomycin) and maintained at 37° C. in a humidified atmosphere of 5% CO2 in air. Cells from exponentially growing cultures were seeded at 3×10^5 cells/ml and induced to differentiate into granulocytes wth 0.8% (v/v) N,N-dimethylformamide for 4 days (1,2). Prior to assay, differentiated HL-60 cells were washed once with Hanks' balanced salt solution containing 0.35 mg/ml sodium bicarbonate and 10 mM Hepes, pH 7.3 (HBSS) and resuspended in HBSS at a concentration of 3×10^6 cells/ml. HL-60 cell viability was >95% as assessed by trypan blue exclusion.
HL-60 Cell Assay: DMSO or test compounds as 100× concentrates in DMSO were added in duplicate to 1.0 ml HL-60 cell suspensions (3×10^6cells) and preincubated at 37° C. for 10 minutes in a shaking water bath. After an additional 5 minute incubation with calcium ionophore A23187 (10 mcl @ 5×10^-4 M in DMSO), the cells were pelleted at 12,800×g for 15 seconds and the supernatant removed and stored at -20° C. for quantification of LTB4 or PGE2 via radioimmunoassay and LDH activity.
Statistical Methods: LTB4 and PGE2 data were expressed as percent inhibition of A23187-stimulated controls. For IC50 determinations, the 4 parameter logistic model was used where y is the percent inhibition response and x is the log10 concentration of the inhibitor: [formula] Nonlinear regression was performed using the SAS (3) procedure NLIN to obtain least squares estimates of the four parameters in the above equation: yx (maximum), Y0 (minimum), a (log10 IC50) and b (slope factor). Increases in mean LDH levels for A23187-stimulated cells in the presence of test compound were tested for significance using a one-tailed two sample Student's t-test.

LTA4 hydrolase = biological target: T1, LTA4 hydrolase (Rattus norvegicus, UniProt P30349); test: Leukotriene-A4 (LTA4) Hydrolase Enzyme Assay (inhibition of LTB4 production by rat neutrophil cytosol, RIA); format: biochemical, rat (male Sprague Dawley); conditions: for inhibition at 100 µM: 10^-4 M; for IC50: rat neutrophil cytosolic LTA4 hydrolase
T1 construct: the supernatant containing cytosolic LTA4 hydrolase was obtained; from tissue; host or cells: peritoneal neutrophils (90-95% pure, oyster-glycogen elicited) of male Sprague Dawley rats; 100,000 x G supernatant of the homogenate
T1 sequence (P30349 1-611): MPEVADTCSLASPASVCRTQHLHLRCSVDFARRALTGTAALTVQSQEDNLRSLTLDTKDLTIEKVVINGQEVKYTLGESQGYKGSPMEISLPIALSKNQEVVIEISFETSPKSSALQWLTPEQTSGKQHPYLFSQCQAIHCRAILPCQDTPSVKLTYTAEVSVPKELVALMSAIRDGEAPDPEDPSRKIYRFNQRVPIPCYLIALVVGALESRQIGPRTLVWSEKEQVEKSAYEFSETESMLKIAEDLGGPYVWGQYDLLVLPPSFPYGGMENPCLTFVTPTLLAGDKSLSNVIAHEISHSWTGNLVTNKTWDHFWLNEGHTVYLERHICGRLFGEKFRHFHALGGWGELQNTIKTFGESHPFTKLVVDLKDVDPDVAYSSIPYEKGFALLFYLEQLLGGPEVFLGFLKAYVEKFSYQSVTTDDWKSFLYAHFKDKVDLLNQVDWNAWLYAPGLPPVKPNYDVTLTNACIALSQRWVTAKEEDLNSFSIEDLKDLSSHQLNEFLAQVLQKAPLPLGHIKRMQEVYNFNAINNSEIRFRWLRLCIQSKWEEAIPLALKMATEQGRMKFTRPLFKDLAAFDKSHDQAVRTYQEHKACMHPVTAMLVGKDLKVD
From the text: Leukotriene --A4 Hydrolase Inhibition Materials
Leukotriene-A4 -methyl ester and leukotriene-A3 were purchased from Biomol (Cambridge). Trans-stilbene oxide, EDTA, phenylmethyl sulphonyl fluoride were purchased from Sigma (St. Louis). Eagles Basil Media was purchased from GIBCO (Grand Island). LTB4 radioimmunoassay kit was purchased from Amersham (Arlington Heights, Ill.) (#Trk. 840).
Methods were modified from those reported by Evans et al., Biochem. Biophys. Acta, 840:43-50 (1985).
Male Sprague Dawley (CD1) rats (250-400 gm bodyweight) were given oyster glycogen, 1 mg/ml in 0.9% NaCl, by intraperitoneal injection. The animals were sacrificed after 8-20 hours and the peritoneal cavity washed with 10 ml Eagles Basil Medium (pH 7.4, 25 mM HEPES, without glutamine). The collected peritoneal lavage fluid was centrifuged at 150×G, 15 minutes at 4° C. to isolate the neutrophils. The supernatant was removed and the cell pellet was resuspended in 20 cc 10 mM sodium phosphate buffer, pH 7.0 with 2 mM Na-EDTA and 1 mM phenylmethyl sulphonyl fluoride (PMSF).
Leukotriene-A4 Hydrolase Isolation
The cell suspensions, which were 90-95% neutrophils as determined by cytometry, were homogenized by a polytron at 4° C. with three 30 second bursts with cooling on ice in between. The homogenate was centrifuged at 100,000×G for 60 minutes, and the supernatant containing cytosolic LTA4 hydrolase was obtained.
LTA4 Methyl Ester Deesterificaiton
LTA4, the substrate for LTA4 hydrolase, is supplied as the stable methyl ester that must be hydrolized to the active form. LTA4 -methyl ester (5000 ng) was dried under a stream of super-dry Argon (Matheson) to which was added a 1 ml methanol: 10M NaOH (9.8:0.2 v/v). The mixture was stirred 3 hours at 4° C. and used immediately.
LTA4 Hydrolase Enzyme Assay
Supernatant containing LTA4 hydrolase, 0.5 ml, was added to 0.5 ml Tris-acetate buffer, pH 7.8, containing 1 mg/ml fatty-acid free BSA. The mixture was incubated 3 minutes at 37° C. with 0.1 ml containing different enzyme inhibitor and test compound concentrations in DMSO. LTA4, 25 ng in 20 μl methanol, was added and incubation with shaking continued at 37° C. for one minute. The reaction was quenched with 2 ml ice-cold ethanol. The quenched mixture was immediately frozen at -76° C. LTB4 levels were determined by radioimmunoassay (RIA) with a validated commercial kit. Various concentrations of potential enzyme inhibitors were evaluated for inhibition of LTB4 production using a standardized amount of enzyme and substrate. The amount of inhibitor necessary to reduce LTB4 production by fifty percent was calculated as the IC50 value for each inhibitor. IC50 values were determined by least square linear regression analysis from the average ±SEM for 4 experiments.

| SMILES | HL-60 Cell Assay % Inhibition ([1]; 10^-5 M) | inhibition at 100 µM ([1]; Homo sapiens, HL-60, 10^-4 M) [%] | inhibition at 100 µM (LTA4 hydrolase) [%] | HL-60 Cell Assay % Inhibition ([1]; 10^-4 M) | inhibition at 10 µM ([1]; Homo sapiens, HL-60, 10^-5 M) [%] | inhibition at 1 µM ([1]; Homo sapiens, HL-60, 10^-6 M) [%] | IC50 ([1]; Homo sapiens) [nM] | IC50 (LTA4 hydrolase) [nM] | HL-60 Cell Assay % Inhibition ([1]; 10^-6 M) | inhibition at 50 µM ([1]; Homo sapiens, HL-60, 5 × 10^-5 M) [%] |
| --- | --- | --- | --- | --- | --- | --- | --- | --- | --- | --- |
| CCCCCCCCCCCCCC[C@@H]1O[C@H]1c1cccc(C(=O)OC)c1 (relative stereo) [Example 22, Methyl 3-(3-tetradecyloxiranyl)benzoate] | I | 79 | 20 |  |  |  |  |  |  |  |
| CCCCCCCCCCCC/C=C/C1OC1c1cccc(C(=O)OC)c1 (centres unmarked) [Example 1, Methyl 3-[3-(1E-tetradecenyl)oxiranyl]benzoate] |  |  |  | I |  |  |  |  |  |  |
| CCCCCCCCCCCC/C=C/C1OC1c1cccc(C(=O)O)c1 (centres unmarked) [Example 1,Li^+ salt] |  | 94 | 40 |  | 96 | 26 | 2800 |  |  |  |
| CCCCCCCCCC/C=C/C=C/C1OC1c1cccc(C(=O)OC)c1 (centres unmarked) [Example 4, Methyl 3-[3-(1E,3E-tetradecadienyl)oxiranyl]benzoate] | I | 29 |  |  |  |  |  |  |  |  |
| CCCCCCCCCC/C=C/C=C/C1OC1c1cccc(C(=O)O)c1 (centres unmarked) [Example 4,Li^+ salt] |  | 88 | 58 |  | 89 | 77 | 160 | 80000 |  |  |
| CCCCCCCC/C=C/C=C/C=C/C1OC1c1cccc(C(=O)O)c1 (centres unmarked) [Example 7,Li^+ salt] |  |  | 85 |  | 61 |  | 15000 | 2000 | I | 80 |

From patent publication US5990326A, “3-oxiranyl benzoic acids and derivatives thereof” (G.D. Searle & Co., priority 1992, dated 1999)
